Values after ≈ are worked out from the molar mass of the structure shown. Values joined by “and” are separate entries in the source; they are usually repeats but may differ in a detail not shown here. Identical values can stand only once. Like-named read-outs stand apart in the source and are kept apart here.
Key:
in vitro = details: human, MCF-10A cells (nonmalignant breast)
MCF-7 = assay: MTT cytotoxicity assay, MCF-7; details: for IC50: Homo sapiens
MDA-MB-231 = assay: MTT cytotoxicity assay, MDA-MB-231; details: for IC50: Homo sapiens; for % viability: MDA
MCF-10A = assay: MTT cytotoxicity assay, nonmalignant MCF-10A; details: read-out: MCF-10A IC50; MTT, nonmalignant MCF-10A;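 note: MTT assay with absorbance read at 570 nm after 48 h exposure of cells to serial compound concentrations at 37 °C, testing selectivity against nonmalignant versus cancer cells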
EGFR = EGFR (Homo sapiens, UniProt P00533); assay: In vitro EGFR enzyme inhibition assay (ELISA); details: for inhibition at 10 pg/mL / inhibition at 0.0001 µg/mL / inhibition at 0.001 µg/mL / inhibition at 0.01 µg/mL: read-out: EGFR %inh; for EGFR %inh: lab report 01-11-2021
Bax = Bax level (ELISA) in treated cells; assay type: cell-based, human; details: MDA
Bcl-2 = Bcl-2 level (ELISA) in treated cells; assay type: cell-based, human
Caspase-9 = Caspase-9 level (ELISA) in treated cells; assay type: cell-based, human
[1] = MCF7, read-out: cytotoxicity_IC50 mcf7
[2] = MDA-MB-231, read-out: MDA-MBA-231 IC50
[3] = MDA-MB-231, read-out: cytotoxicity_IC50 MDA
[4] = EGFR IC50, lab report 01-09-2021, 04 compounds, reference Erlotinib
[5] = MDA cells (MDA-MB-231), cont.MDA = 1

EGFR, sequence (P00533 25-1210): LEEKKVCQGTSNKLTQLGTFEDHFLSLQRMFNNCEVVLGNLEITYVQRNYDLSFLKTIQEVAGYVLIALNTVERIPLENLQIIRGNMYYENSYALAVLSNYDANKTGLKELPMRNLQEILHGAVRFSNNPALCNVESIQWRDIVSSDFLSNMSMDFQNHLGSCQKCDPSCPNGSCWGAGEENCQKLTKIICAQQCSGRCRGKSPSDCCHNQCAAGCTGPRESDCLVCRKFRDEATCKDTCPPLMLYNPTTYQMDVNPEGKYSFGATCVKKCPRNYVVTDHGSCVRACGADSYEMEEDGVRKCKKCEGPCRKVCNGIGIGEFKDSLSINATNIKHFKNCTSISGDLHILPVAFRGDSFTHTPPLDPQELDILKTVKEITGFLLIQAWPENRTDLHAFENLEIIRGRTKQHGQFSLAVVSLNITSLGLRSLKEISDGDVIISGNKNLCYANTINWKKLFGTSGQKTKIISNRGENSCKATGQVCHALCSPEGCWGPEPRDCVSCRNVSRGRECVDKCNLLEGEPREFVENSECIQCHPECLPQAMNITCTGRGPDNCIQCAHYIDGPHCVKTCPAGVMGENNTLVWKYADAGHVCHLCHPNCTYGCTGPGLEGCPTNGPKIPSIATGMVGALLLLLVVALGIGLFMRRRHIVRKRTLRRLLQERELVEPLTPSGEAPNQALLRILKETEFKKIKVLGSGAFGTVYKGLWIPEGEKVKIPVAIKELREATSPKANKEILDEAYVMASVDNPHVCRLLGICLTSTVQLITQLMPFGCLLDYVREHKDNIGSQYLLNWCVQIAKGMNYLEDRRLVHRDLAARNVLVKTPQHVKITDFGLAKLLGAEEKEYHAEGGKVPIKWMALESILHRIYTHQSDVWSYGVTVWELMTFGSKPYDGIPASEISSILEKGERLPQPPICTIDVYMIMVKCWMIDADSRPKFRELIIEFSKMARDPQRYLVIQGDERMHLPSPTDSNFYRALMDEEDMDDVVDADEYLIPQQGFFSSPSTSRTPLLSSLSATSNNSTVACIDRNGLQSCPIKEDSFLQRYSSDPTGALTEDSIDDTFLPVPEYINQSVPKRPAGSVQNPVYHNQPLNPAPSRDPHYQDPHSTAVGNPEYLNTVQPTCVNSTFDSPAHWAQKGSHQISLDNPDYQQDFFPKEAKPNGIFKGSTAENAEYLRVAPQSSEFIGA

| IC50 at 48 h (in vitro) | Compound | viability at 48 h, 0.4 ug (in vitro) | viability at 48 h, 1.6 ug (in vitro) | viability at 48 h, 6.25 ug (in vitro) | viability at 48 h, 25 ug (in vitro) | viability at 48 h, 100 ug (in vitro) | IC50 (MCF-7; MCF7, read-out: MCF-7 IC50) | IC50 (MCF-7; [1]) | % viability (MCF-7; MCF7, 0.4ug) | % viability (MCF-7; MCF7, 1.6ug) | % viability (MCF-7; MCF7, 6.3ug) | % viability (MCF-7; MCF7, 25ug) | % viability (MCF-7; MCF7, 100ug) | IC50 (MDA-MB-231; [2]) | IC50 (MDA-MB-231; [3]) | % viability (MDA-MB-231; 0.4ug (log conc. -0.41)) | % viability (MDA-MB-231; 1.6ug (log conc. 0.19)) | % viability (MDA-MB-231; 6.25ug (log conc. 0.8)) | % viability (MDA-MB-231; 25ug (log conc. 1.4)) | % viability (MDA-MB-231; 100ug (log conc. 2)) | further results |
| --- | --- | --- | --- | --- | --- | --- | --- | --- | --- | --- | --- | --- | --- | --- | --- | --- | --- | --- | --- | --- | --- |
| 27.6 ± 1.35 µg/mL (≈ 84 µM) | O=C(COc1ccc2c(CCl)cc(=O)oc2c1)c1ccccc1 [Compound 5, 4-(Chloromethyl)-7-(2-oxo-2-phenylethoxy)-2H-chromen-2-one] | 74.4% | 66.7% | 57.6% | 49.9% | 43.5% | 39.5 ± 0.79 µM | 13 ± 0.79 µg/mL | 67.523% | 64.281% | 52.844% | 47.217% | 38.104% | 5.8 ± 0.1 µM | 1.91 ± 0.1 µg/mL | 61.18% | 50.473% | 42.019% | 33.628% | 22.3344% | IC50 (MCF-10A): 83.9 ± 1.35 µM; IC50 (EGFR; [4]): 0.316 µM; IC50 (EGFR; EGFR inhibition IC50): 0.316 ± 0.0066 µM; inhibition at 10 pg/mL (EGFR): 29%; inhibition at 0.0001 µg/mL (EGFR): 50%; inhibition at 0.001 µg/mL (EGFR): 70%; inhibition at 0.01 µg/mL (EGFR): 90%; Percentage above Reference IC50 (potency relative to erlotinib) (EGFR; reference Erlotinib): 54.886% |
|  | COc1ccccc1C(=O)OCc1cc(=O)oc2cc(OCC(=O)c3ccc(Cl)cc3)ccc12 [s12] |  |  |  |  |  |  |  |  |  |  |  |  |  |  |  |  |  |  |  | Bax Conc. (Average) (Bax; ELISA backfit, duplicate wells): 360.4 pg/mL; BAX (Bax; cell culture supernatant): 360.4 ± 11.8 pg/mL; BAX FLD (Bax; fold vs cont.MDA = 1): 5.22; BCL2 conc. (Bcl-2; MDA cells (MDA-MB-231) treated with the compound, cont.MDA 10.83±0.046): 2.934 ± 0.154 ng/mL; Bcl-2 Conc. (single wells) (Bcl-2; MDA cells (MDA-MB-231), Bcl-2 ELISA, duplicate wells, control 10.83): 2.826 ng/mL and 3.043 ng/mL; Bcl-2 Conc. (Average) (Bcl-2; MDA cells (MDA-MB-231), Bcl-2 ELISA, mean of 2 wells, control 10.83): 2.934 ng/mL; BCL2 FLD (fold vs control) (Bcl-2; [5]): 0.271; Casp9 (Caspase-9; MDA cells (MDA-MB-231) treated with the compound, cont.MDA 2.611±0.19): 19.16 ± 0.41 ng/mL; Caspase 9 Conc. (single wells) (Caspase-9; MDA cells (MDA-MB-231), caspase9 ELISA, duplicate wells, control 4.084): 21.43 ng/mL and 21.56 ng/mL; Casp9 FLD (fold vs control) (Caspase-9; [5]): 7.34 |
| 79.2 ± 3.86 µg/mL (≈ 178 µM) | COc1ccccc1C(=O)OCc1cc(=O)oc2cc(OCC(=O)c3ccccc3)ccc12 [Compound 11, [2-Oxo-7-(2-oxo-2-phenylethoxy)-2H-chromen-4-yl]methyl 2-methoxybenzoate] | 84.2% | 76.6% | 66.5% | 58.4% | 47.8% | 131 ± 3.52 µM | 58.1 ± 3.52 µg/mL | 86.03% | 75.27% | 65.137% | 57.0548% | 45.822% | 61.2 ± 1.48 µM | 27.2 ± 1.48 µg/mL | 73.69% | 66.71% | 58.055% | 52.2673% | 41.289% | anti-proliferative activity against MCF-7 (in words) (MCF-7; SAR discussion): diminished the activity; anti-proliferative activity against MDA-MB-231 (in words) (MDA-MB-231; SAR discussion): poor anti-proliferative activity; IC50 (MCF-10A): 178 ± 3.86 µM; IC50 (EGFR; [4]): 1.83 µM; IC50 (EGFR; EGFR inhibition IC50): 1.83 ± 0.038 µM; inhibition at 10 pg/mL (EGFR): 7.8%; inhibition at 0.0001 µg/mL (EGFR): 23%; inhibition at 0.001 µg/mL (EGFR): 54%; inhibition at 0.01 µg/mL (EGFR): 76%; Percentage above Reference IC50 (potency relative to erlotinib) (EGFR; reference Erlotinib): 7.91% |
| 122 ± 5.93 µg/mL (≈ 369 µM) | O=C(OCc1cc(=O)oc2cc(O)ccc12)c1ccc(Cl)cc1 [Compound 3, (7-Hydroxy-2-oxo-2H-chromen-4-yl)methyl 4-chlorobenzoate] | 95.8% | 83.9% | 72.9% | 61.2% | 52.7% | 36.6 ± 0.74 µM | 12.1 ± 0.74 µg/mL | 72.04% | 65.12% | 53.704% | 45.5556% | 35.679% | 67.5 ± 1.22 µM | 22.3 ± 1.22 µg/mL | 76.24% | 65.98% | 58.685% | 49.2762% | 40.41% | IC50 (MCF-10A): 369 ± 5.93 µM; IC50 (EGFR; EGFR IC50, lab report 01-11-2021, 10 compounds): 0.974 µM; IC50 (EGFR; EGFR inhibition IC50): 0.974 ± 0.06 µM; EGFR %inh (EGFR; conc 0.01 (unit not given)): 17%; EGFR %inh (EGFR; conc 0.1 (unit not given)): 36%; EGFR %inh (EGFR; conc 1 (unit not given)): 60%; EGFR %inh (EGFR; conc 10 (unit not given)): 85%; Percentage above Reference IC50 (potency relative to erlotinib) (EGFR; reference Erlotinib): 8.624% |

Reference: paper PMC10435442, “Developing multitarget coumarin based anti-breast cancer agents: synthesis and molecular modeling study” (Scientific Reports, 2023)
